For one data set, the system named is C. albicans ATCC 10231. The settings on record: ethanol. As for the experimental part: (§1) Determinations of Minimum Inhibitory Concentration (MIC) and Minimum Bacteriocidal Concentration (MBC) were performed using standard microbiological techniques. Chlorhexidine diacetate was tested at the following μg/mL concentrations: 256, 128, 64, 32, 16, 8, 4, 2, 1, 0.5, 0.25, and 0.125. Ethanol was tested at the following percent (%) concentrations: 50, 40, 30, 25, 20, 15, 12, 10, 7, and 5. Dilutions were prepared in Cationic Adjusted Mueller Hinton Broth (CAMHB). All tests were performed in microtiter plates with a total test volume of 100 μL, including diluted antimicrobial agent and inoculum. Concentrations of antimicrobial agents were prepared at 2× concentration, and 50 μL was added to each well of a microtiter plate, to which 50 μL of inoculum of the test organism was added to give the target test concentration.
(§2) Inoculum was prepared by transfer of isolated colonies from agar plates to 10 mL of trypticase soy broth (TSB), and incubation at 37° C. for 4 hrs. Cells were subsequently centrifuged, and resuspended twice in phosphate buffered saline. The population of this bacterial suspension was determined by reading optical density at 670 nm. Final concentrations of inoculum were adjusted to a range of approximately 5×10^4 cfu/mL, using CAMHB as a diluent. Initial concentrations were verified using the Miles and Misra drop count method. To each test well of a microtiter plate, 50 μl of inoculum was added along with 50 μl of the 2× concentration of the antimicrobial agent being tested. Incubation was at 37° C. for 16 to 20 hours.
(§3) To determine MBC values, 50 μl was removed from each well showing inhibition of growth (MIC and greater). Solutions from these inhibitory concentrations of antimicrobial agent were diluted in CAMHB to concentrations where they would no longer inhibit the growth of the test organism. Recovery counts were obtained by plating aliquots of the diluted material onto TSA plate containing 5% sheep's blood, and incubating 24 hours at 37° C.

For the next data set, the system named is E. faecalis ATCC 51299. Conditions: ethanol. The procedure: as §1, §2, §3
The next data set has as its system E. cloacae ATCC 13047. The settings on record: ethanol. As for the experimental part: as §1, §2, §3
The test system of a further data set is E. coli ATCC 25922. The settings on record: ethanol. The procedure: as §1, §2, §3
The subject of data set [1] is most commonly encountered infectious pathogens. Conditions: conclusion from Table 1. The procedure: as §1, §2, §3
For data set [2], the system named is S. epidermidis ATCC 35983. Conditions: ethanol. As for the experimental part:
as §1, §2, §3

A further data set relates to P. aeruginosa ATCC 27853. Conditions: ethanol. As for the experimental part:
as §1, §2, §3

Another data set concerns K. pneumoniae ATCC 10031. The settings on record: ethanol. The procedure:
as §1, §2, §3

A further data set has as its system S. aureus ATCC 29213. Conditions: ethanol. The procedure:
as §1, §2, §3

The next data set relates to most microorganisms. Conditions: Sissons et al. 1996; cited from earlier work.
Data set [3] is described as follows: Release kinetics of chlorhexidine from loaded catheter segments. The class given is physicochemical. The settings on record: catheter segments 200 micrograms/cm. The procedure: 5Fr Catheter segments were bulk impregnated with chlorhexidine base (CHX) by soaking in an ethyl acetate solution of CHX and then evaporating the solvent. The chlorhexidine mass per unit length was determined by dissolving the catheter […] extracting the chlorhexidine. The measure mass of chlorhexidine was approximately 200 micrograms per cm. 5Fr catheter segments were similarly impregnated with chlorhexidine diacetate to a level of 200 micrograms/cm by soaking in an ethyl acetate-methanol solution followed by evaporation. These segments were used in Zone of inhibition testing and release kinetics testing.
Release kinetics measurements were performed of chlorhexidine base (CHX) and chlorhexidine diacetate (CHA) loaded catheter segments (200 micrograms/cm) in water and in 25% ethanol lock. One cm long catheter segments were placed in 10 ml of 25% ethanol lock solution. At each sampling point the eluting solution was removed and replaced with fresh solution. The amount of chlorhexidine released was measured by UV absorbance readings at 263 nm on the eluting lock solution relative to a reference curve of chlorhexidine standards prepared to known concentrations in 25% ethanol lock. Cumulative % release was calculated from the measured amount released at each time point and the quantity of chlorhexidine loaded into the catheter segments.

The next data set concerns E. coli. In words: MBC of chlorhexidine diacetate alone and at 80% of the ethanol MIC. The format is cell-based. The text has this: (§4) The synergy of ethanol and chlorhexidine is illustrated in Table 2 by measurement of the minimum bacteriocidal concentration (MBC) of chlorhexidine at ethanol concentrations that are subinhibitory (80% of the ethanol minimum inhibitory concentration).

For another data set, the system named is S. aureus. The description is as above. The class given is cell-based.
Source text: as §4

The subject of data set [4] is E. faecalis, S. aureus, E. coli. The experiment in a line: Change of chlorhexidine MBC at subinhibitory ethanol (summary of Table 2). The settings on record: ethanol at 80% of the ethanol MIC. The format is cell-based. As for the experimental part:
as §1
(§5) Inoculum was prepared by transfer of isolated colonies from agar plates to 10 mL of trypticase soy broth (TSB), and incubation at 37° C. for 4 hrs. Cells were subsequently centrifuged, and resuspended twice in phosphate buffered saline. The population of this bacterial suspension was determined by reading optical density at 670 nm. Final concentrations of inoculum were adjusted to a range of approximately 5×10^4 cfu/mL, using CAMHB as a diluent. Initial concentrations were verified using the Miles and Misra drop count method. […]

The test system of the next data set is E. faecalis. In words: MBC of chlorhexidine diacetate alone and at 80% of the ethanol MIC. The format is cell-based. The procedure:
as §1, §5

Data set [5] is described as follows: Solubility of chlorhexidine salts in ethanol (100%) and water. The class given is physicochemical. The settings on record: for Ethanol Solubility: ethanol (100%).

A value given as a limit tells only on which side of the number the result lay.

The values below come from patent US20100087788A1, “Anti-infective alcohol catheter solution with chlorhexidine treated catheter” (priority 2006, published 2010).

As for `CCO` [ethanol], the MBC in the data set on C. albicans ATCC 10231 is reported as 10%; against E. faecalis ATCC 51299, 10%; with E. cloacae ATCC 13047, 10%; in the data set on E. coli ATCC 25922, 15%; in data set [2], 10-12%; in the data set with P. aeruginosa ATCC 27853, 12%. Moreover, the MBC with K. pneumoniae ATCC 10031 and with S. aureus ATCC 29213 was 25% in each case. Moreover, the MIC against C. albicans ATCC 10231 (CAMHB, 37° C., 16 to 20 hours) turned out to be 7%; in the data set with E. faecalis ATCC 51299 (CAMHB, 37° C., 16 to 20 hours), 7%; in the data set on E. cloacae ATCC 13047 (CAMHB, 37° C., 16 to 20 hours), 7%; in the data set on E. coli ATCC 25922 (CAMHB, 37° C., 16 to 20 hours) it was 10%; in data set [2] (CAMHB, 37° C., 16 to 20 hours), 12%; with P. aeruginosa ATCC 27853 (CAMHB, 37° C., 16 to 20 hours), 7%. Moreover, the MIC was determined as 10% in the data set on K. pneumoniae ATCC 10031 (CAMHB, 37° C., 16 to 20 hours) and 12% against S. aureus ATCC 29213 (CAMHB, 37° C., 16 to 20 hours). Moreover, in data set [1], the “ethanol concentration at which the solution will not inhibit microbial growth” value is on record as “below 7%”. Also, the “ethanol lock concentration cidal towards most commonly encountered infectious pathogens” value in data set [1] was “above 25%”. Further, the “concentration that inhibits the growth of most microorganisms” value in the data set with most microorganisms was 10%. Also, the “concentrations generally considered bactericidal” value in the data set with most microorganisms is recorded as ≥ 40%.

For the compound `CC(=O)O.CC(=O)O.NC(=N\CCCCCC/N=C(N)/N=C(\N)Nc1ccc(Cl)cc1)/N=C(\N)Nc1ccc(Cl)cc1` [CHA, chlorhexidine diacetate], the “release of chlorhexidine from catheter into 25% ethanol lock solution, compared with chlorhexidine base (FIG. 2)” value in [3] is given as “releases faster”. Besides, the “MBC for CHA @ 80% MIC ETOH” value in the data set with E. coli (ethanol 8% (80% of MIC)) came to 2 µg/mL; in the data set on S. aureus (ethanol 9.6% (80% of MIC)) it was 1 µg/mL; in the data set on E. faecalis (ethanol 5.6% (80% of MIC)) it was 4 µg/mL. Also, the “MBC for CHA” value in the data set with E. coli (no ethanol) was 4 µg/mL; with S. aureus (no ethanol), 1 to 2 µg/mL; in the data set with E. faecalis (no ethanol), 8 µg/mL. In addition, the “drop of chlorhexidine MBC in the presence of subinhibitory ethanol concentrations” value in data set [4] is listed as “approximately 50%”.

On to Laurate, for which, in [5], the “Ethanol Solubility” value was determined as 200 mg/mL and the “Water Solubility” value came to 0.01 mg/mL.

On to `CCCCC(=O)O.CCCCC(=O)O.N=C(NCCCCCCNC(=N)NC(=N)Nc1ccc(Cl)cc1)NC(=N)Nc1ccc(Cl)cc1` [Valerate], for which, in [5], the “Ethanol Solubility” value was 20 mg/mL and the “Water Solubility” value is 1.2 mg/mL.
